Results on 24 molecules are retold here after PubChem BioAssay (NCI).

Holding throughout (assay): growth of human tumour cells (NCI), 48 h
The test system of experiment [1] is SNB-19 CNS.
Experiment [2] has as its system PC-3 prostate.
Experiment [3] relates to DU-145 prostate.
In experiment [4] the test system is HCT-15 colon.
In experiment [5] the test system is OVCAR-5 ovarian.
Experiment [6] relates to EKVX NSCLC.
Experiment [7] relates to SF-268 CNS.
Experiment [8] deals with KM12 colon.
Experiment [9] deals with NCI-H522 lung.
Experiment [10] deals with SF-539 CNS.
Experiment [11] deals with UO-31 renal.

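A five-concentration, 48-hour dose response in 96-well plates underlies each endpoint, interpolated linearly between surrounding concentrations. Definition used: TGI = concentration required for complete inhibition of growth.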 Where a SMILES comes first, the peptide text is derived from it.

For the molecule `COC(=O)CCC(C)[C@H]1CCC2C3C(C[C@H](OC(C)=O)[C@@]21C)[C@@]1(C)CCC2(C[C@H]1C[C@H]3OC(C)=O)OOC1(CCCCC1)OO2` (some centres undefined), the TGI was > 100 µM in experiment [1]; > 100 µM in experiment [2]; > 100 µM in experiment [3]; > 100 µM in experiment [4]; > 100 µM in experiment [5]; 18.8 µM in [6]. The TGI in experiment [7] was > 100 µM; in experiment [8], > 100 µM; in [9], 60.5 µM; in [10], > 100 µM; in experiment [11], 25.7 µM.

Regarding `CC(=O)Nc1nnc(S(=O)(=O)NC(=S)Nc2ccc(Cl)cc2)s1`, the TGI in experiment [1], in experiment [2], in experiment [3], in experiment [4], in experiment [5] and in experiment [6] was > 100 µM in each case. Further, the TGI in experiment [7], in experiment [8], in [9], in experiment [10] and in experiment [11] was > 100 µM throughout.

With `CN1CCCC(C(=O)OCC(=O)C2(O)CCC3C4CCC5=CC(=O)CCC5(C)C4C(O)CC32C)C1` (centres undefined), the TGI came out at 30.9 µM in experiment [1]; 30.7 µM in experiment [2]; 45.1 µM in [3]; 44.1 µM in experiment [4]; 52.2 µM in [5]; 67.1 µM in experiment [6]. Besides, the TGI in experiment [7] was 46.4 µM; in [8], > 69.7 µM; in experiment [9], 45.3 µM; in experiment [10], 4.38 µM; in [11], 25.4 µM.

On to `CC(=O)/C(=C(/Br)I)c1ccccc1`, for which the TGI in experiment [1] turned out to be 37.5 µM; in experiment [2], 32.2 µM; in experiment [3] it was 31.4 µM; in experiment [4] it was 17.7 µM; in [5], 32.1 µM; in [6], 26.5 µM. Moreover, the TGI was > 46.3 µM in [7]; 28.2 µM in experiment [8]; 3.11 µM in experiment [9]; 47.8 µM in [10]; 25.1 µM in experiment [11].

In the case of `CC(C)OP(=O)(OC(C)C)C(Nc1cccc(C(F)(F)F)c1)c1ccccc1` (centres undefined), the TGI in experiment [1], in experiment [2], in experiment [3], in experiment [4], in [5] and in [6] was > 100 µM throughout. For the same molecule, the TGI in experiment [7], in experiment [8], in experiment [9], in experiment [10] and in experiment [11] was > 100 µM in each case.

In the case of `NCCCCCNOCCCN`, the TGI in experiment [1], in [2], in [3], in [4], in [5] and in experiment [6] was > 100 µM throughout. Further, the TGI in [7], in [8], in [9], in [10] and in [11] was > 100 µM in each case.

`O=c1c(Sc2ncccn2)c(Sc2ncccn2)cnn1CCl`: the TGI was determined as 32.8 µM in experiment [1]; 8.79 µM in experiment [2]; 9.23 µM in experiment [3]; 11.8 µM in [4]; 21.1 µM in [5]; 8.65 µM in [6]. Further, the TGI amounted to 9.57 µM in experiment [7]; 29.1 µM in [8]; 2.37 µM in experiment [9]; 4 µM in experiment [10]; 3.45 µM in [11].

As for `CC(=O)NC(CO)C(=O)NC(Cc1ccc(O)cc1)C(=O)NCC(N)=O` (stereo not drawn) (Ac-Ser-Tyr-Gly-NH2; configuration not given here), the TGI in [1], in experiment [2], in [3], in experiment [4], in experiment [5] and in [6] was > 100 µM in each case. For the same molecule, the TGI in [7], in experiment [8], in [9], in [10] and in experiment [11] was > 100 µM throughout.

Turning to `Oc1ccc(Cn2c(-c3ccc(O)cc3)nc3ccccc32)cc1`, the TGI in experiment [1], in [2], in [3], in experiment [4], in experiment [5] and in experiment [6] was > 100 µM throughout. The TGI in experiment [7], in experiment [8], in experiment [9], in [10] and in [11] was > 100 µM each time.

With `CCOP(=O)(OCC)C(=C1C=C(C(C)(C)C)C(=O)C(C(C)(C)C)=C1)P(=O)(OCC)OCC`, the TGI in experiment [1] was > 10 µM; in [2], > 10 µM; in experiment [3] it was > 10 µM; in [4], > 6.87 µM; in [5] it was > 10 µM; in [6], > 10 µM. Also, the TGI is > 10 µM in experiment [7]; > 10 µM in [8]; 4.29 µM in [9]; > 10 µM in experiment [10]; > 10 µM in experiment [11].

For `Cc1nc(Nc2nc3ccccc3[nH]2)[nH]c(=O)c1CCO`, the TGI in experiment [1], in experiment [2], in experiment [3], in [4], in [5] and in experiment [6] was > 100 µM throughout. The TGI in [7] is > 100 µM; in experiment [8], > 100 µM; in [9] it was > 100 µM; in experiment [10], > 65.3 µM; in [11], > 100 µM.

For `COC(=O)C1=NN2c3ccccc3CN([C@@H](C)c3ccccc3)C(=O)[C@H]2[C@@H]1C`, the TGI in experiment [1], in [2], in experiment [3], in experiment [4], in [5] and in experiment [6] was > 100 µM in each case. Besides, the TGI in experiment [7], in [8], in experiment [9], in experiment [10] and in experiment [11] was > 100 µM each time.

Take `Cc1cn2c(/C=C3/C(=O)Nc4ccccc43)c(C)nc2s1`: the TGI was > 100 µM in [1]; 6.99 µM in experiment [2]; > 100 µM in experiment [3]; > 100 µM in [4]; > 100 µM in experiment [5]; > 100 µM in experiment [6]. For the same molecule, the TGI in experiment [7] turned out to be 78.1 µM; in experiment [8], 29.7 µM; in experiment [9] it was 21.5 µM; in [10], 7.83 µM; in experiment [11], 61.4 µM.

For `OC1(c2ccc3ccccc3c2)c2c(c3ccccc3c3ccccc23)C2=NCCN21` (centres undefined), the TGI was > 58.2 µM in experiment [1]; > 69.3 µM in experiment [2]; > 65.3 µM in [3]; > 39.4 µM in experiment [4]; > 83.7 µM in experiment [5]; 36.3 µM in experiment [6]. For the same molecule, the TGI was 29.2 µM in experiment [7]; 6.12 µM in [8]; 24.8 µM in experiment [9]; 13.1 µM in experiment [10]; > 48.8 µM in experiment [11].

As for `O=C(O)CO/N=C1/C(c2c(O)[nH]c3ccccc23)=Nc2ccccc21`, the TGI in [1], in [2], in experiment [3], in [4], in [5] and in [6] was > 100 µM in each case. The TGI in [7], in experiment [8], in experiment [9], in experiment [10] and in experiment [11] was > 100 µM in each case.

As to `Cc1ccc(N2C(=O)C(=O)N(/N=C3\C(=O)Nc4ccccc43)C2=S)cc1`, the TGI in [1], in experiment [2], in [3], in experiment [4], in experiment [5] and in experiment [6] was > 100 µM each time. The TGI in [7], in [8], in [9], in [10] and in [11] was > 100 µM each time.

Turning to `CCN1C(=O)CS/C1=N\NC(=O)CSc1nc2ccccc2c(=O)n1CC`, the TGI in experiment [1], in experiment [2], in experiment [3], in experiment [4], in experiment [5] and in experiment [6] was > 100 µM in each case. Also, the TGI in experiment [7], in experiment [8], in experiment [9], in [10] and in [11] was > 100 µM in each case.

On to `CCCc1cc(-c2ccc(-c3cc(CCC)c(C=O)[nH]3)s2)[nH]c1C=O`, for which the TGI was > 100 µM in experiment [1]; > 100 µM in experiment [2]; > 100 µM in experiment [3]; > 100 µM in experiment [4]; 58.7 µM in experiment [5]; > 100 µM in experiment [6]. Moreover, the TGI in experiment [7] was > 100 µM; in experiment [8], > 100 µM; in experiment [9], 17.9 µM; in experiment [10], > 100 µM; in experiment [11] it was > 100 µM.

As to `CN(C)C(=O)Oc1ccc(C(=S)Nc2ccccc2)cc1Br`, the TGI in [1], in [2], in [3], in experiment [4], in experiment [5] and in [6] was > 100 µM in each case. Also, the TGI in [7] is 23.5 µM; in experiment [8], 51.6 µM; in [9], 52.4 µM; in experiment [10], > 100 µM; in experiment [11], > 100 µM.

As to `O=C1Nc2ccc(Br)cc2/C1=C/C(=O)c1ccccc1`, the TGI is 37.7 µM in experiment [1]; 26.9 µM in experiment [2]; 23.8 µM in experiment [3]; 6.51 µM in experiment [4]; 53.6 µM in experiment [5]; 28.6 µM in [6]. Besides, the TGI in experiment [7] came to 50.8 µM; in experiment [8], 23 µM; in [9], 5.17 µM; in [10], 13 µM; in experiment [11], 6.98 µM.

For the molecule `CCc1n[nH]c(=S)n1/N=C\c1ccc(-c2ccccc2[N+](=O)[O-])o1`, the TGI in experiment [1], in experiment [2], in experiment [3], in experiment [4], in experiment [5] and in [6] was > 100 µM throughout. Moreover, the TGI in [7], in experiment [8], in experiment [9], in experiment [10] and in experiment [11] was > 100 µM throughout.

In the case of `CNc1ncnc2c1cnn2Cc1cn(CCCCO)nn1`, the TGI in experiment [1], in experiment [2], in experiment [3], in experiment [4], in experiment [5] and in experiment [6] was > 100 µM in each case. The TGI in experiment [7], in [8], in [9], in experiment [10] and in [11] was > 100 µM throughout.

In the case of `Cn1nc(C(=O)N2CC(CCl)c3c2cc([N+](=O)[O-])c2ccccc32)cc1NC(=O)Nc1cc(C(=O)N2CC(CCl)c3c2cc([N+](=O)[O-])c2ccccc32)nn1C` (centres undefined), the TGI in experiment [1], in [2], in experiment [3], in experiment [4], in experiment [5] and in experiment [6] was > 100 µM in each case. The TGI in [7] was > 100 µM; in experiment [8], > 100 µM; in experiment [9], > 100 µM; in experiment [10] it was 70.2 µM; in experiment [11], > 100 µM.

Consider `COC(=O)CCC1(O)C=CC(=O)C=C1`, for which the TGI in experiment [1] is > 100 µM; in experiment [2], > 100 µM; in [3] it was > 100 µM; in experiment [4], 43.2 µM; in [5], > 100 µM; in [6] it was > 100 µM. Moreover, the TGI in [7] was > 100 µM; in experiment [8] it was > 100 µM; in experiment [9], 28.8 µM; in experiment [10], 76.4 µM; in experiment [11], > 100 µM.
